Test results: patent US11572398B2, “GLP-1 derivatives and uses thereof” (Novo Nordisk A/S, priority 2014, dated 2023)
Read-outs that look alike come from different tables or passages of the source.

How the values were obtained:
human GLP-1 receptor [1] = target: T1, human GLP-1 receptor (Homo sapiens, UniProt P43220); assay: GLP-1 receptor binding: competitive binding assay (125I-GLP-1, SPA) on isolated membranes at low and high HSA
T1 construct: expressed in transfected cells; host or cells: BHK cells (parent line BHKTS13), clone FCW467-12A; membrane preparation
Method: The purpose of this example is to test the receptor binding of the GLP-1 derivatives in vitro. The receptor binding is a measure of affinity of a derivative for the human GLP-1 receptor.
Each derivative is added in a series of concentrations to isolated membranes containing the human GLP-1 receptor and displacement of the labelled ligand is monitored. The receptor binding is reported as the concentration at which half of the labelled ligand is displaced from the receptor, the IC50 value.
Buffer 1 consisted of 20 mM Na-HEPES plus 10 mM EDTA and pH was adjusted to 7.4. Buffer 2 consisted of 20 mM Na-HEPES plus 0.1 mM EDTA and pH was adjusted to 7.4. Assay buffer consisted of 50 mM HEPES supplemented with 5 mM EGTA, 5 mM MgCl2, 0.005% Tween 20 and pH was adjusted to 7.4. An 8% albumin stock consisted of HSA dissolved at 8% (w/v) in assay buffer. An 0.02% albumin stock consisted of HSA dissolved at 0.02% (w/v) in assay buffer.
The cells express the human GLP-1 receptor.
The cells were grown at 5% CO2 in DMEM, 10% fetal calf serum, 1% Pen/Strep (Penicillin/Streptomycin) and 1.0 mg/ml of the selection marker G418. To make a membrane preparation the cells were grown to approximately 80% confluence. The cells were washed twice in phosphate-buffered saline and harvested. The cells were pelleted using a brief centrifugation and the cell pellet was kept on ice. […] The homogenate was centrifuged for 15 minutes. The pellet was re-suspended (homogenised) in 10 ml buffer 2 and centrifuged. This step was repeated once more. The resulting pellet was re-suspended in buffer 2 and the protein concentration was determined. The membranes were aliquoted and stored at minus 80° C.
1. […] Assay continued with step 3.
2. For the receptor binding assay in the presence of high HSA (2%) 50 μl of the 8% albumin stock was added to each well of an assay plate. Assay continued with step 3.
4. Cell membrane aliquots were thawed and diluted to their working concentration. Fifty μl were added to each well in the assay plate.
5. WGA SPA beads were suspended in assay buffer at 20 mg/ml. The suspension was diluted to 10 mg/ml in assay buffer just prior to addition to the assay plate. Fifty μl were added to each well in the assay plate.
6. […] A 25 μl aliquot was reserved for measuring total counts/well.
7. The assay plate was incubated for 2 h at 30° C.
8. The assay plate was centrifuged for 10 min.
9. The assay plate was read in a Packard TopCount NXT instrument.
The data from the TopCount instrument were transferred to GraphPad Prism software. Individual replicates were analysed using non-linear regression. IC50 values were calculated by the software and reported in nM. The reported values are averages of all of the measured values for each compound.

human GLP-1 receptor [2] = target: T1, human GLP-1 receptor; assay: In vitro potency: CRE luciferase reporter gene assay in BHK cells expressing the human GLP-1 receptor; type: cell-based; conditions: whole cell reporter gene assay, BHK cells, human GLP-1 receptor; average of at least two replicates; read-out: EC50
Method: The purpose of this example is to test the activity, or potency, of the GLP-1 derivatives in vitro. The in vitro potency is the measure of human GLP-1 receptor activation in a whole cell assay.
In vitro potency was determined by measuring the response of the human GLP-1 receptor in a reporter gene assay. The assay was performed in a stably transfected BHK cell line that expresses the human GLP-1 receptor and contains the DNA for the cAMP response element (CRE) coupled to a promoter and the gene for firefly luciferase (CRE luciferase). When the human GLP-1 receptor is activated it results in the production of cAMP, which in turn results in the luciferase protein being expressed. When assay incubation is completed the luciferase substrate (luciferin) is added and the enzyme converts luciferin to oxyluciferin to produce bioluminescence. The luminescence is measured as the readout for the assay.
The cells were cultured at 5% CO2 in cell culture medium. They were aliquoted and stored in liquid nitrogen. Before each assay an aliquot was taken up and washed twice in PBS before being suspended at the desired concentration in the assay specific buffer.
The assay buffer consisted of 2% ovalbumin and 0.2% Pluronic F-68 in assay medium.
1) Cell stocks were thawed in a 37° C. water bath.
2) Cells were washed three times in PBS.
3) Cells were counted and adjusted to 5×10^3 cells/50 μl (1×10^5 cells/ml) in assay medium. A 50 μl aliquot of cells was transferred to each well in the assay plate.
4) Stocks of the test compounds and reference compounds were diluted to a concentration of 0.2 μM in assay buffer. […] 8) A 100 μl aliquot of steadylite plus reagent was added to each well of the assay plate. 9) Each assay plate was covered with aluminum foil to protect it from light and shaken for 30 min at room temperature. 10) Each assay plate was read in a BioTek Synergy 2 Multi-Mode Reader. Calculations and Results
The data from the BioTek Synergy 2 Multi-Mode Reader were transferred to GraphPad Prism software. The software performs a non-linear regression (log(agonist) vs response (three parameters)).
A minimum of two replicates were measured for each sample. The reported EC50 values are averages of all of the measured values for each compound.

[3] = Low HSA IC50, low HSA (max. 0.001% final assay concentration)
[4] = high HSA (2.0% final assay concentration), read-out: High HSA IC50

T1 sequence (P43220 24-463): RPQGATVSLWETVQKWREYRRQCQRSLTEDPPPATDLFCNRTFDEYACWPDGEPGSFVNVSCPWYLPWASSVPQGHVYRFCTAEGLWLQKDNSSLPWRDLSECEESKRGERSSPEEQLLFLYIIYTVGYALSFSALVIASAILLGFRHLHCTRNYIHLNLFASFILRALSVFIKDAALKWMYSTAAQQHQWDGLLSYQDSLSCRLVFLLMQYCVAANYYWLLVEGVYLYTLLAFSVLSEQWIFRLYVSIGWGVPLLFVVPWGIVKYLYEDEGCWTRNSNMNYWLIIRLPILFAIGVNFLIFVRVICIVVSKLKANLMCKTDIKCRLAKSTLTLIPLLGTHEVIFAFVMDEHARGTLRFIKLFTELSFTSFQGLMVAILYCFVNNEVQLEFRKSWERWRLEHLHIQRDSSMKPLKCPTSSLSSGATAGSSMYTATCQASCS

Compound	IC50 (human GLP-1 receptor [1]; [3])	IC50 (human GLP-1 receptor [1]; [4])	EC50 (human GLP-1 receptor [2])	IC50 (human GLP-1 receptor [1]; low HSA (max. 0.001% final assay concentration), read-out: Low HSA IC50)
CC[C@H](C)[C@H](NC(=O)[C@H](Cc1ccccc1)NC(=O)[C@H](CCC(=O)O)NC(=O)[C@H](CCCNC(=N)N)NC(=O)[C@H](C)NC(=O)[C@H](C)NC(=O)[C@H](CCC(N)=O)NC(=O)[C@H](CCC(=O)O)NC(=O)[C@H](CCC(=O)O)NC(=O)[C@H](CC(C)C)NC(=O)[C@H](Cc1ccc(O)cc1)NC(=O)[C@H](CO)NC(=O)[C@H](CO)NC(=O)[C@@H](NC(=O)[C@H](CC(=O)O)NC(=O)[C@H](CO)NC(=O)[C@@H](NC(=O)[C@H](Cc1ccccc1)NC(=O)[C@@H](NC(=O)CNC(=O)[C@H](CCC(=O)O)NC(=O)C(C)(C)NC(=O)[C@@H](N)Cc1c[nH]cn1)[C@@H](C)O)[C@@H](C)O)C(C)C)C(=O)N[C@@H](C)C(=O)N[C@@H](Cc1c[nH]c2ccccc12)C(=O)N[C@@H](CC(C)C)C(=O)N[C@H](C(=O)N[C@@H](CCCNC(=N)N)C(=O)NCC(=O)N[C@@H](CCCNC(=N)N)C(=O)N[C@@H](CCCCNC(=O)CN(CCCNC(=O)COCCOCCNC(=O)COCCOCCNC(=O)COCCOCCNC(=O)COCCOCCNC(=O)CC[C@H](NC(=O)[C@H]1CC[C@H](CNC(=O)CCCNC(=O)CCCCCCCCCCCCCCCS(=O)(=O)O)CC1)C(=O)O)CCCNC(=O)COCCOCCNC(=O)COCCOCCNC(=O)COCCOCCNC(=O)COCCOCCNC(=O)CC[C@H](NC(=O)[C@H]1CC[C@H](CNC(=O)CCCNC(=O)CCCCCCCCCCCCCCCS(=O)(=O)O)CC1)C(=O)O)C(=O)O)C(C)C [Example 19, N{Epsilon-37}-[2-[bis[3-[[2-[2-[2-[[2-[2-[2-[[2-[2-[2-[[2-[2-[2-[[(4S)-4-carboxy-4-[[4-[[4-(16-sulfohexadecanoylamino)butanoylamino]methyl]cyclohexanecarbonyl]amino]butanoyl]amino]ethoxy]ethoxy]acetyl]amino]ethoxy]ethoxy]acetyl]amino]ethoxy]ethoxy]acetyl]amino]ethoxy]ethoxy]acetyl]amino]propyl]amino]acetyl]-[Aib8,Glu22,Arg26,Arg34,Lys37]-GLP-1-(7-37)-peptide]	0.15 nM	42 nM	1.4 pM	–
CC[C@H](C)[C@H](NC(=O)[C@H](Cc1ccccc1)NC(=O)[C@H](CCC(=O)O)NC(=O)[C@H](CCCNC(=N)N)NC(=O)[C@H](C)NC(=O)[C@H](C)NC(=O)[C@H](CCC(N)=O)NC(=O)[C@H](CCC(=O)O)NC(=O)[C@H](CCC(=O)O)NC(=O)[C@H](CC(C)C)NC(=O)[C@H](Cc1ccc(O)cc1)NC(=O)[C@H](CO)NC(=O)[C@H](CO)NC(=O)[C@@H](NC(=O)[C@H](CC(=O)O)NC(=O)[C@H](CO)NC(=O)[C@@H](NC(=O)[C@H](Cc1ccccc1)NC(=O)[C@@H](NC(=O)CNC(=O)[C@H](CCC(=O)O)NC(=O)C(C)(C)NC(=O)[C@@H](N)Cc1c[nH]cn1)[C@@H](C)O)[C@@H](C)O)C(C)C)C(=O)N[C@@H](C)C(=O)N[C@@H](Cc1c[nH]c2ccccc12)C(=O)N[C@@H](CC(C)C)C(=O)N[C@H](C(=O)N[C@@H](CCCNC(=N)N)C(=O)NCC(=O)N[C@@H](CCCNC(=N)N)C(=O)N[C@@H](CCCCNC(=O)CN(CCCNC(=O)COCCOCCNC(=O)COCCOCCNC(=O)COCCOCCNC(=O)COCCOCCNC(=O)CC[C@H](NC(=O)[C@H]1CC[C@H](CNC(=O)CCCCCCCCCCCCCCCS(=O)(=O)O)CC1)C(=O)O)CCCNC(=O)COCCOCCNC(=O)COCCOCCNC(=O)COCCOCCNC(=O)COCCOCCNC(=O)CC[C@H](NC(=O)[C@H]1CC[C@H](CNC(=O)CCCCCCCCCCCCCCCS(=O)(=O)O)CC1)C(=O)O)C(=O)O)C(C)C [Example 22, N{Epsilon-37}-[2-[bis[3-[[2-[2-[2-[[2-[2-[2-[[2-[2-[2-[[2-[2-[2-[[(4S)-4-carboxy-4-[[4-[(16-sulfohexadecanoylamino)methyl]cyclohexanecarbonyl]amino]butanoyl]amino]ethoxy]ethoxy]acetyl]amino]ethoxy]ethoxy]acetyl]amino]ethoxy]ethoxy]acetyl]amino]ethoxy]ethoxy]acetyl]amino]propyl]amino]acetyl]-[Aib8,Glu22,Arg26,Arg34,Lys37]-GLP-1-(7-37)-peptide]	0.12 nM	47 nM	1.6 pM	–
CC[C@H](C)[C@H](NC(=O)[C@H](Cc1ccccc1)NC(=O)[C@H](CCC(=O)O)NC(=O)[C@H](CCCNC(=N)N)NC(=O)[C@H](C)NC(=O)[C@H](C)NC(=O)[C@H](CCC(N)=O)NC(=O)[C@H](CCC(=O)O)NC(=O)[C@H](CCC(=O)O)NC(=O)[C@H](CC(C)C)NC(=O)[C@H](Cc1ccc(O)cc1)NC(=O)[C@H](CO)NC(=O)[C@H](CO)NC(=O)[C@@H](NC(=O)[C@H](CC(=O)O)NC(=O)[C@H](CO)NC(=O)[C@@H](NC(=O)[C@H](Cc1ccccc1)NC(=O)[C@@H](NC(=O)CNC(=O)[C@H](CCC(=O)O)NC(=O)C(C)(C)NC(=O)[C@@H](N)Cc1c[nH]cn1)[C@@H](C)O)[C@@H](C)O)C(C)C)C(=O)N[C@@H](C)C(=O)N[C@@H](Cc1c[nH]c2ccccc12)C(=O)N[C@@H](CC(C)C)C(=O)N[C@H](C(=O)N[C@@H](CCCNC(=N)N)C(=O)NCC(=O)N[C@@H](CCCNC(=N)N)C(=O)N[C@@H](CCCCNC(=O)CN(CCCNC(=O)CCOCCOCCOCCOCCOCCOCCOCCOCCOCCOCCOCCOCCNC(=O)[C@@H](N)CCCCNC(=O)[C@@H](N)CCCCNC(=O)CCCCCCCCCCCCCCCCCCC(=O)O)CCCNC(=O)CCOCCOCCOCCOCCOCCOCCOCCOCCOCCOCCOCCOCCNC(=O)[C@@H](N)CCCCNC(=O)[C@@H](N)CCCCNC(=O)CCCCCCCCCCCCCCCCCCC(=O)O)C(=O)O)C(C)C [Example 8, N{Epsilon-37}-[2-[bis[3-[3-[2-[2-[2-[2-[2-[2-[2-[2-[2-[2-[2-[2-[[(2S)-2-amino-6-[[(2S)-2-amino-6-(19-carboxynonadecanoylamino)hexanoyl]amino]hexanoyl]amino]ethoxy]ethoxy]ethoxy]ethoxy]ethoxy]ethoxy]ethoxy]ethoxy]ethoxy]ethoxy]ethoxy]ethoxy]propanoylamino]propyl]amino]acetyl]-[Aib8,Glu22,Arg26,Arg34,Lys37]-GLP-1-(7-37)-peptide]	–	27 nM	10 pM	0.19 nM
